Test results from PubChem BioAssay (NCI).
Several values for one entry are separate records, joined by “and”; a condition that tells them apart may be missing. Equal entries are not always repeated.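 Assay format: 96-well plates, 48-hour exposure. Abbreviation: GI50, concentration required for 50% inhibition of growth. The concentration for full growth arrest is given as TGI.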

Key:
Assay in all cases: NCI tumour cell line growth inhibition, 48 h
[1] = tested on: SK-OV-3 ovarian
[2] = tested on: SW-620 colon
[3] = tested on: RXF 393 renal
[4] = tested on: TK-10 renal
[5] = tested on: MOLT-4 leukemia
[6] = tested on: SK-MEL-28 melanoma
[7] = tested on: HCT-116 colon
[8] = tested on: OVCAR-3 ovarian
[9] = tested on: IGROV1 ovarian
[10] = tested on: NCI-H460 lung

CCC[CH2][Sn]([CH2]CCC)([O]C(=O)c1cc(OC)c(OC)cc1OC)[O]C(=O)c1cc(OC)c(OC)cc1OC
GI50 [1]: 2.14 µM | TGI [1]: 5.51 µM | GI50 [2]: 1130 nM | TGI [2]: 2.83 µM | GI50 [3]: 0.327 µM | TGI [3]: 1.47 µM | GI50 [4]: 1.5 µM | TGI [4]: 2.84 µM | GI50 [5]: 0.747 µM | TGI [5]: 6.43 µM | GI50 [6]: 0.971 µM | TGI [6]: 2.23 µM | GI50 [7]: 1510 nM | TGI [7]: 2.85 µM | GI50 [8]: 1.3 µM | TGI [8]: 2.86 µM | GI50 [9]: 1.43 µM | TGI [9]: 2.96 µM | GI50 [10]: 3.08 µM | TGI [10]: 12.1 µM

CC1(C)CC(=O)c2c(ccc(C(=O)C[C@H](N)CO)c2N)O1
GI50 [1]: > 17.5 µM and 12.3 µM | TGI [1]: > 33.3 µM | GI50 [2]: 647 nM and 117 nM | TGI [2]: 17.5 µM and > 33.3 µM | GI50 [3]: 4.45 µM and 5.14 µM | TGI [3]: 17.5 µM and > 33.3 µM | GI50 [4]: > 17.5 µM and 5.99 µM | TGI [4]: > 17.5 µM and 28.8 µM | GI50 [5]: 1.61 µM and 0.177 µM | TGI [5]: 17.5 µM and 26.7 µM | TGI [6]: 17.5 µM and > 33.3 µM | GI50 [7]: 1360 nM and 2010 nM | TGI [7]: 17.5 µM and > 33.3 µM | TGI [8]: 17.5 µM and > 33.3 µM | GI50 [9]: 3.09 µM | TGI [9]: 17.5 µM | GI50 [10]: 0.89 µM and 0.129 µM | TGI [10]: 17.5 µM and > 33.3 µM

CN(C)C(=O)c1cc2cnc(Nc3ccc(-c4csc5c(=O)cc(N6CCNCC6)oc45)cc3)nc2n1C1CCCC1
GI50 [1]: 6.21 µM | TGI [1]: 21.2 µM | GI50 [2]: 418 nM | TGI [2]: 2.09 µM | GI50 [3]: 0.27 µM | TGI [3]: 1.03 µM | GI50 [4]: 1.34 µM | TGI [4]: 14.6 µM | GI50 [5]: 0.368 µM | TGI [5]: 2.11 µM | GI50 [6]: 2.14 µM | TGI [6]: 6.88 µM | GI50 [7]: 318 nM | TGI [7]: 1.4 µM | GI50 [8]: 0.871 µM | TGI [8]: 2.72 µM | GI50 [9]: 0.523 µM | TGI [9]: 6.12 µM | GI50 [10]: 0.814 µM | TGI [10]: 2.35 µM

COc1cc2ccnc3c2c(c1OC)-c1ccc(=O)ccc1-3
GI50 [1]: 41.5 µM | TGI [1]: > 100 µM | GI50 [2]: 13900 nM | TGI [2]: > 100 µM | GI50 [3]: 18.7 µM | TGI [3]: 77 µM | GI50 [4]: 35.1 µM | TGI [4]: 83.5 µM | GI50 [5]: 3.6 µM | TGI [5]: 18.7 µM | GI50 [6]: 23.7 µM | TGI [6]: 66.9 µM | GI50 [7]: 5250 nM | TGI [7]: 34.5 µM | GI50 [8]: 21.8 µM | TGI [8]: 56.2 µM | GI50 [9]: 47 µM | TGI [9]: > 100 µM | GI50 [10]: 20.7 µM | TGI [10]: > 100 µM

O=C(NC(=S)NNC(=S)NNc1ccccc1)c1ccccc1
GI50 [1]: 44.2 µM | TGI [1]: > 100 µM | GI50 [2]: 4090 nM | TGI [2]: > 100 µM | GI50 [3]: 29 µM | TGI [3]: > 100 µM | GI50 [4]: 35.4 µM | TGI [4]: > 100 µM | GI50 [5]: 4.81 µM | TGI [5]: 49.9 µM | GI50 [6]: 10.6 µM | TGI [6]: > 100 µM | GI50 [7]: 4050 nM | TGI [7]: > 100 µM | GI50 [8]: 18.2 µM | TGI [8]: > 100 µM | GI50 [9]: 4.8 µM | TGI [9]: > 100 µM | GI50 [10]: 3.72 µM | TGI [10]: > 100 µM

Cc1ccc(S(=O)(=O)SCc2ccccc2CSS(=O)(=O)c2ccc(C)cc2)cc1
TGI [1]: > 100 µM | TGI [2]: 31.8 µM | TGI [3]: 29.6 µM | TGI [4]: > 100 µM | TGI [5]: 43.9 µM | TGI [6]: 36.6 µM | TGI [7]: 59.6 µM | TGI [8]: 43.7 µM | TGI [9]: > 100 µM | TGI [10]: > 100 µM

COc1ccc2c(c1)sc1nc(-c3ccccc3)c(-c3ccc(O)c(OC)c3)n12
GI50 [1]: 19.6 µM | TGI [1]: > 100 µM | GI50 [2]: 5150 nM | TGI [2]: > 100 µM | GI50 [3]: 4.9 µM | TGI [3]: 29.8 µM | GI50 [4]: > 100 µM | TGI [4]: > 100 µM | GI50 [5]: 12.8 µM | TGI [5]: > 100 µM | GI50 [6]: 8.99 µM | TGI [6]: > 100 µM | GI50 [7]: 4950 nM | TGI [7]: > 100 µM | GI50 [8]: 10.1 µM | TGI [8]: 63.8 µM | GI50 [9]: > 100 µM | TGI [9]: > 100 µM | GI50 [10]: 6.51 µM | TGI [10]: > 100 µM

C[C@H]1[C@H](C)CC[C@]2(C(=O)O)CC[C@]3(C)C(=CC[C@@H]4[C@@]5(C)CC[C@H](OC(=O)/C=C/c6ccc(O)cc6)C(C)(C)[C@@H]5CC[C@]43C)[C@H]12
GI50 [1]: 5.25 µM | TGI [1]: 20.3 µM | GI50 [2]: 9200 nM | TGI [2]: 32.4 µM | GI50 [3]: 1.83 µM | TGI [3]: 5.42 µM | GI50 [4]: 3.01 µM | TGI [4]: 17.5 µM | GI50 [5]: 4.42 µM | TGI [5]: 49.7 µM | GI50 [6]: 19.1 µM | TGI [6]: > 74.5 µM | GI50 [7]: 3090 nM | TGI [7]: 7.93 µM | GI50 [8]: 12.5 µM | TGI [8]: 39.2 µM | GI50 [9]: 8.39 µM | TGI [9]: 45.8 µM | GI50 [10]: 7.08 µM | TGI [10]: > 65.9 µM

CCC[CH2][Ge]([CH2]CCC)([CH2]CCC)[O]C(=O)C(O)c1ccccc1 (configuration not stated)
GI50 [1]: 9.27 µM | TGI [1]: 35.6 µM | GI50 [2]: 4090 nM | TGI [2]: 20.4 µM | TGI [3]: 1.06 µM | GI50 [4]: 18 µM | TGI [4]: > 100 µM | GI50 [5]: 0.602 µM | TGI [5]: > 39.4 µM | GI50 [6]: 12.7 µM | TGI [6]: 29.8 µM | GI50 [7]: 571 nM | TGI [7]: 13.8 µM | GI50 [8]: 1.35 µM | TGI [8]: 18.4 µM | GI50 [9]: 9.44 µM | TGI [9]: 30.6 µM | GI50 [10]: 3.03 µM | TGI [10]: 34.9 µM

CCOC(=O)N1N=NC2C3OC(C[C@@]3(C#N)OC(C)=O)[C@H]21 (some centres not stated)
TGI [1]: > 100 µM | TGI [2]: > 100 µM | TGI [3]: > 100 µM | TGI [4]: > 100 µM | TGI [5]: > 100 µM | TGI [6]: > 100 µM | TGI [7]: > 100 µM | TGI [8]: > 100 µM | TGI [9]: > 100 µM | TGI [10]: > 100 µM

O=C(NNc1ccccc1)OCc1ccccc1
GI50 [1]: > 100 µM | TGI [1]: > 100 µM | GI50 [2]: 2140 nM | TGI [2]: > 100 µM | GI50 [3]: 91.6 µM | TGI [3]: > 100 µM | GI50 [4]: 32.9 µM | TGI [4]: > 100 µM | GI50 [5]: 5.89 µM | TGI [5]: > 100 µM | GI50 [6]: 98.3 µM | TGI [6]: > 100 µM | GI50 [7]: 12400 nM | TGI [7]: > 100 µM | GI50 [8]: 21 µM | TGI [8]: > 100 µM | GI50 [9]: 15.2 µM | TGI [9]: > 100 µM | GI50 [10]: 4.43 µM | TGI [10]: > 100 µM

Nc1nc(N)c2c(ccc3nccc32)[nH]1
GI50 [1]: 18.4 µM | TGI [1]: > 81.5 µM | GI50 [2]: 1030 nM | TGI [2]: > 77.3 µM | GI50 [3]: 3.09 µM | TGI [3]: 17.8 µM | GI50 [4]: 17.4 µM | TGI [4]: > 86.8 µM | GI50 [5]: 3.12 µM | TGI [5]: > 92.1 µM | GI50 [6]: 14.7 µM | TGI [6]: > 93.8 µM | GI50 [7]: 934 nM | TGI [7]: > 71.2 µM | GI50 [8]: 7.68 µM | TGI [8]: 36.6 µM | GI50 [9]: 2.34 µM | TGI [9]: 9.35 µM | GI50 [10]: 0.439 µM | TGI [10]: 14.5 µM
